Eleven molecules from US7122621B2, “Anti-cellular proliferative disorder polypeptide” (Academia Sinica, priority 2003, dated 2006) can be followed below.

Read-outs that look alike come from different tables or passages of the source. No end group written: not given here. Bounds are passed on as bounds.

In one data set the test system is HL-60. Nature of the data set: cells. As to the method: (§1) To evaluate the cell lysis activity of CHM1, a cytotoxcity assay was conducted according to the method described in Chen H. et al., Biochim. Biophys. Acta 1336:171–179, 1997 and Wang W. et al., J. Biol. Chem. 273:27438–27448, 1998.
(§2) Anchorage-independent normal cells such as red blood cells and lymphoblast RPMI 7666 cells, and leukemia cell lines such as CCRF-CEM, HL-60, and Jurkat, K-562 cells were respectively maintained in RMPI-1640 culture media containing 10% FBS, 100 unit/ml penicillin G, and 100 μg/ml streptomycin. Cells of each type were seeded at 1×10^5/ml into a 25 cm^2 flask (Falcon) and cultured at 37° C. in the presence of 5% CO2 for two days. The cells were then centrifuged at 1000 rpm for 5 min. The resultant pellet was washed twice with the just-mentioned culture medium, resuspended in an RMPI-1640 medium containing 0.5% FBS, and cultured overnight.
(§3) Each of the above-prepared cell suspensions was adjusted so that it contained 1×10^5 cells/ml before being transferred into 9 wells of a 96-well plate (90 μl/well). The suspension in each well was mixed with 10 ul of a culture medium containing CHM1 freshly prepared from a […] stock solution so that the final concentrations in the 9 wells were 0, 1, 5, 10, 15, 20, 30, 50, and 100 μM, respectively. Triplicates for each well were set up. After incubating for 24 hours, a microtetrazolium (MTT)-based colorimetric assay was conducted. It is known that MTT can be metabolized by mitochondrial dehydrogenases in metabolically active cells to form a formazan salt, which has a strong absorption at 570 nm. To conduct the assay, 20 μl of a solution containing 5 mg/ml MTT (Boehringer Mannheim) was added to each of the wells mentioned above and a well containing 100 μl of PBS. The latter was used as a blank control. After incubating for 4 hours, 100 μl of a solution containing 10% SDS and […] HCl was added to each well. The plate was then incubated at 37° C. overnight. The absorbance at 570 nm of the mixture in each well was measured using a Bio-Rad model 450 microtiter plate reader. An average cell survival rate of each triplicate was determined based on the corresponding ΔA570nm relative to that of the well containing 0 μM CHM1. The survival rates thus obtained were plotted against corresponding CHM1 concentrations to form a cell survival curve and derive the IC50. Using the same procedure, also determined were the IC50s of other lytic polypeptides, such as cecropin B (CB), cecropin B1 (CB1), Melittin, and Magainin II, and cancer chemotherapeutic agents, such as doxorubicin (DOX), vincristine (VCR), methotrexate (MTX), 5-fluorouracil (5-Fu), cytarabine (Ara-C), 6-mercaptopurine (6-MP). At least three independent experiments were conducted for each of the polypeptides and agents.

Data set [1] relates to lymphoblast RPMI 7666 cells. The data set can be described thus: cells. As to the method: as §1, §2, §3
The next data set concerns CCRF-SB. The data set can be described thus: MTT-based cytotoxicity assay, CCRF-SB cancer cells. It counts as cell-based. Particulars: Homo sapiens, Table 2, 24 hours incubation. As to the method:
as §1, §3
(Tetrazolium assays rely on reduction of a dye to a coloured formazan, in cell work by metabolically active cells.)

The subject of another data set is CCRF-CEM. The data set can be described thus: cells. As to the method: as §1, §2, §3
The next data set relates to Jurkat. The data set can be described thus: cells. As to the method:
as §1, §2, §3

The test system of the next data set is K-562. Nature of the data set: cells. The procedure: as §1, §2, §3
The test system of data set [2] is stomach carcinoma (AGS) cells. Nature of the data set: cells. The procedure:
as §1
(§4) Anchorage-dependent cells such as tissue cells (3T3 cells) or stomach carcinoma (AGS) cells were seeded at 1×10^4 cells/ml into a 25-cm^2 flask containing D-MEM medium supplemented with 10% FBS, 100 unit/ml penicillin G, and 100 μg/ml streptomycin. Cells were grown to about 80% confluence before being trypsinized. The trypsinized cells were resuspended in a D-MEM medium containing 0.5% FBS.
as §3

The test system of a further data set is tissue cells (3T3 cells). Nature of the data set: cells. As to the method:
as §1, §4, §3

The subject of the next data set is red blood cells (RBCs). Nature of the data set: Hemolysis of red blood cells. It counts as cell-based. Particulars: 200 μM. As to the method: as §2
Effects of CHM1, melittin, CB, CB1 and doxorubicin on red blood cells (RBCs) were also examined. […] In fact, about 15% of RBCs lysed after being treated with CHM1 (200 μM). In contrast, about 100%, 57%, 55%, and 20% of RBCs lysed after being treated by melittin, CB, CB1, and doxorubicin, respectively, at the same concentration.

Setting [3] is: Homo sapiens, HL-60, 24 h, read-out: IC50, Cancer Cells HL-60.
[4] abbreviates: 24 h, read-out: IC50, Lymphoblasts RPMI 7666.
Where [5] appears, read: read-out: IC50, Normal cells Lymphoblast (RPMI7666), Table 1, 24 hours incubation, MTT.
Where [6] appears, read: read-out: IC50, Leukemia cells CCRF-CEM, 24 hours incubation, MTT.
Setting [7] is: read-out: IC50, Leukemia cells HL-60, Table 1, 24 hours incubation, MTT.
Where [8] appears, read: read-out: IC50, Leukemia cells Jurkat, 24 hours incubation, MTT.
Where [9] appears, read: read-out: IC50, Leukemia cells K-562, 24 hours incubation, MTT.
Setting [10] is: read-out: IC50, Stomach Carcinoma AGS, 24 hours incubation, MTT.
[11] abbreviates: read-out: IC50, Normal cells Tissue cells (3T3), 24 hours incubation, MTT.

One may read the IC50 as the point on the concentration scale where inhibition reaches its midpoint. With `Sc1ncnc2nc[nH]c12` [6-MP, 6-mercaptopurine], the IC50 in the data set on HL-60 (setting [3]) was 0.43 ± 0.05 µM; in data set [1] (setting [4]) it was 1.24 ± 0.3 µM; in the data set with CCRF-SB, 0.44 ± 0.01 µM.

With “KWKVFKKIEKKWKVFKKIEKAGPKWKVFKKIEK [CHM1]”, the 50% inhibitory concentration (IC50) in the data set on CCRF-CEM (24 h) was 4.4 ± 0.3 µM; with HL-60 (24 h) it was 6.7 ± 1.1 µM; with Jurkat (24 h), 10.1 ± 1.2 µM; in the data set with K-562 (24 h) it was 8.5 ± 0.6 µM; in [1] (setting [5]), over 100 µM; in data set [2] (24 h), 5.6 ± 0.5 µM. The same molecule showed an IC50 in the data set with tissue cells (3T3 cells) (24 h) of over 50 µM. For the same molecule, in data set [1] (summary of Table 1), the “effect on normal lymphoblasts (in words)” value is recorded as “little effect”. The “effect on normal tissue cells (in words)” value in the data set with tissue cells (3T3 cells) (summary of Table 1) is recorded as “little effect”.

Regarding `CC[C@H](C)[C@H](NC(=O)CN)C(=O)NCC(=O)N[C@@H](C)C(=O)N[C@H](C(=O)N[C@@H](CC(C)C)C(=O)N[C@@H](CCCCN)C(=O)N[C@H](C(=O)N[C@@H](CC(C)C)C(=O)N[C@H](C(=O)N[C@H](C(=O)NCC(=O)N[C@@H](CC(C)C)C(=O)N1CCC[C@H]1C(=O)N[C@@H](C)C(=O)N[C@@H](CC(C)C)C(=O)N[C@H](C(=O)N[C@@H](CO)C(=O)N[C@@H](Cc1c[nH]c2ccccc12)C(=O)N[C@H](C(=O)N[C@@H](CCCCN)C(=O)N[C@@H](CCCNC(=N)N)C(=O)N[C@@H](CCCCN)C(=O)N[C@@H](CCCNC(=N)N)C(=O)N[C@@H](CCC(N)=O)C(=O)N[C@@H](CCC(N)=O)C(N)=O)[C@@H](C)CC)[C@@H](C)CC)[C@@H](C)O)[C@@H](C)O)C(C)C)C(C)C` [Melittin], the IC50 came out at 0.5 ± 0.02 µM with CCRF-CEM (setting [6]); 0.8 ± 0.02 µM with HL-60 (setting [7]); 2.5 ± 0.1 µM in the data set with Jurkat (setting [8]); 3.2 ± 0.3 µM in the data set with K-562 (setting [9]); 0.6 ± 0.02 µM in [2] (setting [10]); 6 ± 0.03 µM with tissue cells (3T3 cells) (setting [11]). Besides, in the data set on red blood cells (RBCs), the RBCs lysed result is on record as “about 100%”.

Regarding cecropin B1 [CB1], the IC50 in the data set on CCRF-CEM (setting [6]) is 4.7 ± 0.2 µM; in the data set with HL-60 (setting [7]) it was 8.1 ± 0.9 µM; with Jurkat (setting [8]) it was 4 ± 0.4 µM; in the data set on K-562 (setting [9]) it was 15.6 ± 1.8 µM; in data set [1] (setting [5]), over 200 µM; in [2] (setting [10]), 7.1 ± 1.3 µM. Further, the IC50 in the data set on tissue cells (3T3 cells) (setting [11]) is over 50 µM.

In the case of `Nc1ccn([C@@H]2O[C@H](CO)[C@@H](O)[C@@H]2O)c(=O)n1` [Ara-C, cytarabine], the IC50 was 0.08 ± 0.02 µM with HL-60 (setting [3]), 0.3 ± 0.1 µM in data set [1] (setting [4]) and 0.1 ± 0.01 µM in the data set with CCRF-SB.

Consider `O=c1[nH]cc(F)c(=O)[nH]1` [5-FU, 5-fluorouracil], for which the IC50 is 7.6 ± 10.5 µM with HL-60 (setting [3]), 1.15 ± 0.4 µM in data set [1] (setting [4]) and 123 ± 30.7 µM in the data set with CCRF-SB.

Consider `CN(Cc1cnc2nc(N)nc(N)c2n1)c1ccc(C(=O)N[C@@H](CCC(=O)O)C(=O)O)cc1` [MTX, methotrexate], for which the IC50 in the data set with HL-60 (setting [3]) worked out at 0.018 ± 0.01 µM; in data set [1] (setting [4]) it was 0.132 ± 0.04 µM; with CCRF-SB it was 0.017 ± 0.01 µM.

As to GIGKFLHSAKKFGKAFVGEIMNS [Magainin II], the IC50 in the data set on CCRF-CEM (24 h) is 32.9 ± 0.9 µM; in the data set on HL-60 (24 h) it was 38.3 ± 3.2 µM; with Jurkat (24 h) it was 44 ± 2.4 µM; with K-562 (24 h) it was over 50 µM; in [2] (24 h), 28.7 ± 5 µM; in the data set with tissue cells (3T3 cells) (24 h) it was over 50 µM.

For the molecule `CC[C@]1(O)C[C@H]2CN(CCc3c([nH]c4ccccc34)[C@@](C(=O)OC)(c3cc4c(cc3OC)N(C=O)[C@H]3[C@@](O)(C(=O)OC)[C@H](OC(C)=O)[C@]5(CC)C=CCN6CC[C@]43[C@@H]65)C2)C1` [VCR, vincristine], the IC50 in the data set on HL-60 (setting [3]) came to 0.034 ± 0.01 µM; in [1] (setting [4]), 0.021 µM; in the data set with CCRF-SB, 0.015 ± 0.01 µM.

On to `COc1cccc2c1C(=O)c1c(O)c3c(c(O)c1C2=O)C[C@@](O)(C(=O)CO)C[C@@H]3O[C@H]1C[C@H](N)[C@H](O)[C@H](C)O1` [Doxorubicin, doxorubicin], for which the IC50 was 0.4 ± 0.1 µM in the data set on CCRF-CEM (Homo sapiens, CCRF-CEM, 24 h, read-out: IC50, Leukemia cells CCRF-CEM); 0.19 ± 0.01 µM in the data set on HL-60 (setting [3]); 0.19 ± 0.01 µM in the data set on HL-60 (Homo sapiens, HL-60, 24 h, read-out: IC50, Leukemia cells HL-60); 0.4 ± 0.1 µM in the data set on Jurkat (Homo sapiens, Jurkat, 24 h, read-out: IC50, Leukemia cells Jurkat); over 10 µM in the data set on K-562 (Homo sapiens, K562, 24 h, read-out: IC50, Leukemia cells K-562); 1.86 ± 0.1 µM in [1] (setting [4]). In addition, the IC50 in data set [1] (24 h, read-out: IC50, Normal cells Lymphoblast (RPMI7666)) is 1.9 ± 0.1 µM; in data set [2] (Homo sapiens, AGS, 24 h, read-out: IC50, Stomach Carcinoma AGS), 4.1 ± 0.4 µM; with tissue cells (3T3 cells) (Mus musculus, NIH3T3, 24 h, read-out: IC50, Normal cells Tissue cells (3T3)), 2 ± 0.7 µM; in the data set with CCRF-SB it was 0.46 ± 0.07 µM. For the same molecule, the RBCs lysed with red blood cells (RBCs) is reported as about 20%.

In the case of “KWKVFKKIEKMGRNIRNGIVKAGPAIAVLGEAKAL-NH2 [CB, cecropin B]”, the IC50 with CCRF-CEM (24 h) is 11.7 ± 1.3 µM; in the data set on HL-60 (24 h), 18.5 ± 1.7 µM; in the data set with Jurkat (24 h), 31.5 ± 3 µM; with K-562 (24 h) it was over 50 µM; in [1] (setting [5]), over 200 µM; in data set [2] (24 h) it was over 50 µM. In the data set on tissue cells (3T3 cells) (24 h), this molecule showed an IC50 of over 50 µM.
